Data from patent US20160303069A1, “MEDICAL USE OF COMPOUND FROM GARCINIA ESCULENTA” (Hong Kong Baptist University, priority 2015, published 2016).

Assays:
Eca109 cells [1] = assay: scratch (wound healing) migration assay; assay type: cell-based, human
Protocol: (§1) Eca109 and KYSE150 are cultured in RPMI1640 medium supplemented with 10% fetal calf serum, 100 U/ml penicillin and 100 μg/ml streptomycin in a humidified atmosphere containing 5% CO2 at 37° C. 0.25% trypsin is used for digestion and passage; cells under logarithmic growth phase are used in the experiment.
(§2) Eca109 and KYSE150 under logarithmic growth phase are seeded into 24-well plate (1×10^5 cells/well). When monolayer of cell is formed, use a sterile 100 μl pipette tip to create a scratch on the monolayer, and fresh medium containing different concentration of Griffipavixanthone (GPX) or Sorafenib (SFB) (20 μM/well) are added. Cells are observed at 12 hours and 36 hours after scratch and imaged under IX83 microscope (Olympus, Tokyo, Japan).

KYSE150 cells [2] = assay: scratch (wound healing) migration assay; assay type: cell-based, human
Protocol: as §1, §2

Eca109 cells [3] = assay: transwell cell migration assay; assay type: cell-based, human; settings: 5, 10, 15, 20 μM, 24 hours
Protocol: as §1
(§3) Eca109 and KYSE150 (5×10^4 cells/well) are seeded to the upper chamber (8 μm pore size) of the transwell chambers. The upper chamber contains serum-free; the lower chamber contains 10% FBS. Cells are treated with GPX for 24 hours, medium is then removed, non-migrated cells found on the upper chamber are removed using a cotton swab. Migrated cells found on the bottom chamber are fixed with 4% paraformaldehyde, stained with 0.1% crystal violet and scored under a light microscope in five random fields as shown in FIG. 3. Experimental data are expressed as mean±standard deviation, using SPSS18.0 statistical software for analysis, One-Way ANOVA for variance, comparison using Student t test, **P<0.01, ***P<0.001 is considered as statistically significant difference.

KYSE150 cells [4] = assay: transwell cell migration assay; assay type: cell-based, human; settings: 5, 10, 15, 20 μM, 24 hours
Protocol: as §1, §3

Eca109 cells [5] = assay: matrigel transwell cell invasion assay; assay type: cell-based, human; settings: 5, 10, 15, 20 μM, 24 hours
Protocol: as §1
Transwell chambers (8 μm pore size) used in cell migration assay are pre-incubated with matrigel for 2 hours, Eca109 (1×10^5 cells/well) are seeded onto serum-free upper chambers, lower chamber contains 10% FBS medium. Cells are treatment with GPX for 24 hours, thereafter, medium is discarded, cotton swab is used to gently remove the non invaded cells in the upper chamber. Invaded cells in the lower chamber are fixed with 4% paraformaldehyde, stained with 0.1% crystal violet and scored under a light microscope. Experimental data are expressed as mean±standard deviation, using SPSS18.0 statistical software for analysis, One-Way ANOVA for variance, comparison using Student t test, *P<0.05, **P<0.01, ***P<0.001 is considered as statistically significant difference.

KYSE150 cells [6] = assay: matrigel transwell cell invasion assay; assay type: cell-based, human; settings: 5, 10, 15, 20 μM, 24 hours
Eca109 cells [7] = assay: colony formation / cell proliferation assay; assay type: cell-based, human; settings: 5, 10, 15, 20 μM, 48 hours treatment, 7 days incubation
Protocol: as §1
(§4) Eca109 (500 cells/well) and KYSE150 (250 cells/well) are seeded in a 6-well plate. […] On the 7th day, cells are fixed with 4% paraformaldehyde, stained with 0.1% crystal violet and imaged under a light microscope.

KYSE150 cells [8] = assay: colony formation / cell proliferation assay; assay type: cell-based, human; settings: 5, 10, 15, 20 μM, 48 hours treatment, 7 days incubation
Protocol: as §1, §4

Eca109 cells [9] = assay: cell cycle analysis by PI flow cytometry; assay type: cell-based, human; settings: 48 hours
Protocol: as §1, with “passage,” for “passage;”
Eca109 and KYSE150 (2×10^5 cells/well) are seeded to a 6-well place and treated with GPX or SFB (20 μM/well) for 48 hours. Cells are then harvested and fixed in 70% cold ethanol and stored 4° C. overnight. The cells are incubated with PI containing RNase A for 30 mins at 37° C., and are analyzed by flow cytometry (BD Biosciences Inc., Franklin Lakes, N.J., USA).

KYSE150 cells [10] = assay: cell cycle analysis by PI flow cytometry; assay type: cell-based, human; settings: 48 hours
Protocol: as §1, with “passage,” for “passage;”
[…] Cells are then harvested and fixed in 70% cold ethanol and stored 4° C. overnight. The cells are incubated with PI containing RNase A for 30 mins at 37° C., and are analyzed by flow cytometry (BD Biosciences Inc., Franklin Lakes, N.J., USA).

KYSE150 lung metastasis = assay: lung metastasis animal model (KYSE150 cells injected intravenously); assay type: in vivo; settings: nude mice, 20 mg/kg every another day for 35 days; for number of lung tumor nodules / size / area of lung nodules (metastatic foci): HE staining, 20 mg/kg
Protocol: as §1, with “incubator” for “atmosphere”
KYSE150 cells (1×10^6 cells/mouse) are intravenously injected into 6-week old male nude mice (Experimental Animal Center of the Chinese Academy of Science, Shanghai, China). The 6-week old male nude mice weight 20 g each. After injection of the cancer cells, the mice are divided into 3 groups randomly (n=8 in each group). DMSO, GPX (20 mg/kg) or 5-FU (20 mg/kg) are administered to the mice intraperitoneally every another day for 35 days. Body weight is measured every 2 days. 35 days later, lungs are removed and weighted. Using Bouin's solution, lungs are fixed, sliced and stained with HE to count number of lung nodules.

esophageal cancer = assay: apoptosis in vitro; assay type: cell-based
[11] = different concentrations of GPX, observed 12 h and 36 h after scratch
[12] = SFB 20 μM/well, positive control

In the case of `CC1=C[C@H]2c3c(c(O)c(O)c4oc5cc(O)cc(O)c5c(=O)c34)[C@H](c3cc(O)c(O)c4oc5cc(O)cc(O)c5c(=O)c34)[C@H]2C(C)(C)C1` [GPX, Griffipavixanthone], the “inhibition of cell scratch migration in wound healing” value (“inhibition of cell scratch migration” below) (Eca109 cells [1]; [11]) was “inhibits cell migration of Eca109 and KYSE150 in wound healing in a dose dependent manner”, the “inhibition of cell scratch migration” value (KYSE150 cells [2]; [11]) was “inhibits cell migration of Eca109 and KYSE150 in wound healing in a dose dependent manner” and the “inhibition of cell migration (transwell)” value (Eca109 cells [3]) was “inhibits cell migration of Eca109 and KYSE150 at 5, 10, 15, 20 μM in a dose dependent manner”. The “inhibition of cell migration (transwell)” value (KYSE150 cells [4]) was “inhibits cell migration of Eca109 and KYSE150 at 5, 10, 15, 20 μM in a dose dependent manner”, the “inhibition of cell invasion” value (Eca109 cells [5]) was “inhibits cell invasion of Eca109 and KYSE150 at 5, 10, 15, 20 μM in a dose dependent manner” and the “inhibition of cell invasion” value (KYSE150 cells [6]) was “inhibits cell invasion of Eca109 and KYSE150 at 5, 10, 15, 20 μM in a dose dependent manner”. The “inhibition of cell proliferation (colony formation)” value (Eca109 cells [7]) was “inhibits cell proliferation of Eca109 and KYSE150 at 5, 10, 15, 20 μM in a dose dependent manner”, the “inhibition of cell proliferation (colony formation)” value (KYSE150 cells [8]) was “inhibits cell proliferation of Eca109 and KYSE150 at 5, 10, 15, 20 μM in a dose dependent manner” and the “G2/M cell cycle arrest” value (Eca109 cells [9]; 5, 10, 15, 20 μM) was “induces G2/M cell cycle arrest in Eca109 and KYSE150 at 5, 10, 15, 20 μM in a dose dependent manner”. The “G2/M cell cycle arrest” value (KYSE150 cells [10]; 5, 10, 15, 20 μM) was “induces G2/M cell cycle arrest in Eca109 and KYSE150 at 5, 10, 15, 20 μM in a dose dependent manner”, the “inhibition of lung metastasis of KYSE150” value (KYSE150 lung metastasis) was “significantly inhibits lung metastasis of KYSE150” and the lung weight (KYSE150 lung metastasis) was “reduced lung weight”. For the same compound, the “number of lung tumor nodules” value (KYSE150 lung metastasis) was “reduced number of lung tumor nodules”, the “size / area of lung nodules (metastatic foci)” value (KYSE150 lung metastasis) was “metastatic foci are sparse and smaller” and the “number of lung tumor nodules” value (KYSE150 lung metastasis; listed as Griffipavixanthone) was “reduces lung nodules”. For the same compound, the “size / area of lung nodules (metastatic foci)” value (KYSE150 lung metastasis; listed as Griffipavixanthone) was “reduces lung nodules and area of pulmonary nodules in lung tissues” and the promotion of apoptosis (esophageal cancer) was “without promoting apoptosis in vitro”.

`CNC(=O)c1cc(Oc2ccc(NC(=O)Nc3ccc(Cl)c(C(F)(F)F)c3)cc2)ccn1` [SFB, Sorafenib, reference compound] was tested, and the “inhibition of cell scratch migration” value (Eca109 cells [1]; [12]) was “significantly inhibit cell scratch migration”, the “inhibition of cell scratch migration” value (KYSE150 cells [2]; [12]) was “significantly inhibit cell scratch migration” and the “G2/M cell cycle arrest” value (Eca109 cells [9]; [12]) was “the results are in line with SFB”. For the same compound, the “G2/M cell cycle arrest” value (KYSE150 cells [10]; [12]) was “the results are in line with SFB”.
